{
  "source": "patent US20250195468A1",
  "about": "“METHODS AND COMPOSITIONS FOR TREATING COLORECTAL CANCER WITH INDOXYL SULFATE” (National Institute of Immunology, priority 2023, published 2025)",
  "test_system": "Balb/c mice",
  "experiment": "Animal study: effect on normal colonic cells (organ length, body weight, histology, symptoms)",
  "conditions": "control groups (negative / positive control), 12 weeks",
  "description": "Wild-type Balb/c mice were obtained from Jackson Laboratory, USA, and housed in plastic cages with free access to water and food. The mice were randomly assigned to five test groups, which included three control groups: vehicle control, negative control (100 mM sodium propionate), and positive control (AOM (Azoxymethane)/DSS). Additionally, there were two experimental groups receiving 100 mM of indoxyl sulfate, one via intraperitoneal (IP) administration and the other via intrarectal (IR) administration. Each group consisted of six mice. In the AOM/DSS group, AOM was injected intraperitoneally at a dosage of 10 mg/kg bodyweight. The AOM was injected only once on the 1st day of experiment. The positive control mice received 2% DSS for 7 days in the first week, fourth week, and seventh week. […]\nThe colon was collected from each mouse for subsequent histology studies. […] Various parameters, including tumor localization (proximal or distal bowel, rectum, cecum, ileocecal valve), tumor number, cancer stage (dysplasia/adenoma or adenocarcinoma, determined by infiltration into the muscular mucosa), immune cell infiltration, and inflammation, were assessed. Bowel inflammation was evaluated by observing immune cell infiltration and the presence or absence of mucous membranes using a 10× objective. […]",
  "data": [
    {"smiles": "CCC(=O)[O-].[Na+]", "note": "[Propionate, sodium propionate]", "values": [
      {"measurement": "Length of large intestine (mean ± SD)", "result": "9.98 ± 0.67", "unit": "cm"},
      {"measurement": "Length of spleen (mean ± SD)", "result": "1.5 ± 0.08", "unit": "cm"}
    ]}
  ]
}
